Each structure is given as a SMILES string.

The target of test [1] is interaction of gp96 and AIMP1 (Mus musculus, UniProt P08113). Description: ELISA assay of gp96-AIMP1 interaction. Type of test: binding, murine. On the procedure: FIGS. 1 to 9 represent suppression of cell surface gp96 by GPM1 reduces DC maturation and B220^+ population in gp96tm transgenic mice. (FIG. 1) Chemical structure of GPM1 (Formula 2) and negative control (NC1, Formula 16) used in this study. (FIG. 2) The dose-dependent effect of GPM1 or NC1 on the AIMP1-gp96 interaction using ELISA method as described. The indicated concentrations of the two compounds and biotin-conjugated murine gp96 were added to AIMP1 coated on the surface of microtiter wells, and gp96 bound to AIMP1 was detected with strepavidin-conjugated peroxidase. (FIG. 3) The binding of GPM1 to gp96 was examined by surface plasmon resonance (SPR). GPM1 at the indicated concentrations was injected to immobilized gp96 and the binding was measured using Biacore 3000. The response data were processed using data from a reference surface and buffer injections. Each concentration was tested in triplicate. (FIG. 4) RAW24.7 cells were treated with 10 μM GPM1 for 24 h. Cell lysates were immunoprecipitated with control IgG or anti-gp96 antibody and the immunoprecipitated proteins were immunoblotted with anti-KDELR1, antiAIMP1 and gp96 antibodies. WCL means whole cell lysate. (FIG. 5) Splenocytes isolated from C57BL/6 mice were treated with vehicle (5% DMSO in PBS), GPM1, or NC1 (10 μM, 24 h), stained for cell surface gp96, and followed by flow cytometry. (FIG. 6) AIMP1^+/+ or AIMP1^−/− mouse splenocytes (2×10^5 cells) were treated with vehicle, GPM1, or NC1 (10 μM, 24 h), fixed, and then co-cultured with WT bone marrow-derived DCs (1×10^4 cells) for 16 h. TNFα secreted from BMDCs was quantified by ELISA. (FIG. 7) Percentage of gp96^+ MHC class II^+ cell population in splenocytes from gp96tm transgenic female mice treated with vehicle (control) (n=9), GPM1 (n=9), and dexamethasone (n=7) at 30 mg/kg. (FIG. 8) Cell surface ICOSL of CD11b^+CD11c^+ (myeloid DCs), CD11b^−CD11c^+ (lymphoid DCs), and CD11b^+CD11c^− (macrophages) cell populations in splenocytes from gp96tm transgenic female mice treated with vehicle (n=9) and GPM1 (n=9) at 30 mg/kg. (FIG. 9) Percentage of B220^+, MHC class II^+, CD4^+, CD8^+, CD4 and CD8 double negative cell populations in splenocytes from gp96tm transgenic female mice treated with vehicle (n=9), GPM1 (n=9), and dexamethasone (n=7) at 30 mg/kg. Student t-test P values comparing GPM1-treated mice with control are indicated.
Chain of interaction of gp96 and AIMP1 (P08113 22-802): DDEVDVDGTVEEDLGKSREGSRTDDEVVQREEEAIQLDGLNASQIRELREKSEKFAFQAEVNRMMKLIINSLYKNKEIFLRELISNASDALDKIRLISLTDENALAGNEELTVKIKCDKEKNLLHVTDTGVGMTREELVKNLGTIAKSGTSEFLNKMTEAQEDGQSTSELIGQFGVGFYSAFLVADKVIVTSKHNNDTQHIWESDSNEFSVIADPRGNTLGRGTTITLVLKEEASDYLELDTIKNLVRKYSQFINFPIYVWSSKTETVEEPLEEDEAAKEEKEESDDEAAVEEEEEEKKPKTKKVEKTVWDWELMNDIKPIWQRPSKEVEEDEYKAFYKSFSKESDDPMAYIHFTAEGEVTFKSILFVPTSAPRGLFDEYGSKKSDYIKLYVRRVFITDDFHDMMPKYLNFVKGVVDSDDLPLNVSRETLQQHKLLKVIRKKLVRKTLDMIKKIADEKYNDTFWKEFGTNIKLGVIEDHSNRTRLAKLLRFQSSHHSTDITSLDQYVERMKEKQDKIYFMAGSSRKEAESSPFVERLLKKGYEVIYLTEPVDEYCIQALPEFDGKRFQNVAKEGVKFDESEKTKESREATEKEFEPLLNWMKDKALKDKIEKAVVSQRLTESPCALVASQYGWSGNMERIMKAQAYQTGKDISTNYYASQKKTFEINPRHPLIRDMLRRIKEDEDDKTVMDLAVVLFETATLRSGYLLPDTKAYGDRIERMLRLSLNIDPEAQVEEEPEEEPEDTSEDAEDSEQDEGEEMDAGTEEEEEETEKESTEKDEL
96-well plates (Maxisorp., F96; Nunc) were coated with 500 ng/well AIMP1 in PBS (pH 7.4). After washing, the remaining sites were blocked with PBS containing 1% BSA for 1 h. Binding of 10 ng/well biotin-conjugated gp96 was performed in Tris buffer (25 mM Tris, 10 mM NaCl and 0.4% Triton X-100). Each of the 6,580 compounds was added to the well at 100 nM and the plates were washed and incubated with HRP conjugated streptavidin in PBS containing 0.1% BSA and 0.1% Tween 20 for 30 min. The plates were washed, and then substrate was added to each well. The absorbance was monitored at 450 nm.
To identify chemicals that can affect membrane translocation of gp96, the present inventors employed the interaction of gp96 with AIMP1 as the screening target. For this screening, the present inventors chose 6,482 chemicals with different pharmacophore representing 150,000 different chemicals deposited in Korea Chemical Bank and identified the compounds that can inhibit the interaction of the two proteins. For the screening, the present inventors set up a modified ELISA method using recombinant AIMP1 and gp96 proteins as described in Experimental methods. Each of the tested compounds gave different effect on the interaction of the two proteins (FIG. 19). And the present inventors have selected 12 compounds that inhibited the interaction more than 95% of the control at 0.1 μM (Table 1). The present inventors obtained 1251 additional compounds derived from these 12 initial hits and tested them again for their activities against the gp96-AIMP1 interaction.

Another test deals with T1, gp96 M738L (Homo sapiens, UniProt P14625, M742L).
T1 construct: made in house; host or cells: Escherichia coli BL21 (DE3)
T1 sequence (P14625 22-803 M742L): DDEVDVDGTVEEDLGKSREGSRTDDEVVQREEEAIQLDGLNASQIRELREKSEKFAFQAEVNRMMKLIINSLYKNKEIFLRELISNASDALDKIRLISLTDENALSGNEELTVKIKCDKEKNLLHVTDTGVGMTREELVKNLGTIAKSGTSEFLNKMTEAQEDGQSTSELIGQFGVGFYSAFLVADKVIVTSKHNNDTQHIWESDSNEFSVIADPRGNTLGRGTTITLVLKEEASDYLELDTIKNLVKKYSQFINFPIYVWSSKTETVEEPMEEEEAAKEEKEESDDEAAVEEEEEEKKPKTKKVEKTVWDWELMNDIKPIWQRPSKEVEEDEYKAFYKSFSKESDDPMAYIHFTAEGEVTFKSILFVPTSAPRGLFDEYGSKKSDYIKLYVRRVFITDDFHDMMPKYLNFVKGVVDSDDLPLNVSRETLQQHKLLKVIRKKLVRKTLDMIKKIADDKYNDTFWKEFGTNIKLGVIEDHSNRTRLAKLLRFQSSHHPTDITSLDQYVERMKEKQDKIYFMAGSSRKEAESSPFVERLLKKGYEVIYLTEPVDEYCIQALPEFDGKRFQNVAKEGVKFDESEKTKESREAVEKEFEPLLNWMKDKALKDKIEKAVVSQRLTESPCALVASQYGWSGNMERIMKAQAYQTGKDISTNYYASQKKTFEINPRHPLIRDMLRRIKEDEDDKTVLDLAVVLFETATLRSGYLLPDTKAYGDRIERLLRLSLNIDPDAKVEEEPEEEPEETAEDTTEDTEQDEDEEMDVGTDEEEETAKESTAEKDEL
Briefly: Surface plasmon resonance, GPM1 binding to gp96 mutant M738L. On the procedure:
Human gp96 was expressed as His tag fusion protein in Escherichia coli BL21 (DE3) and purified by nickel affinity chromatography. His-tagged human gp96 was immobilized onto CM5 sensor chips using standard amine coupling2. PBS was used as a running buffer. The carboxymethyl dextran surface within one side of the flow cell was activated with a 7-min injection of a 1:1 ratio of 0.4M EDC and 0.1M NHS. The protein was coupled to the surface with a 7-min injection of gp96 diluted in 10 mM sodium acetate, pH 3.7. Remaining activated groups were blocked with a 7-min injection of 1.0M ethanolamine, pH 8.5. GPM1 compound was dissolved directly in the PBS running buffer containing 1% DMSO and injected at a flow rate of 20 μl/min at 25° C. and the binding was determined by the change in resonance units (RU). The compound concentration varied from 10 nM to 25 μM and each concentration was tested at least three times. All of the bound complexes dissociated back to baseline within a reasonable time frame. Therefore, no regeneration was required. Sensorgram was processed by subtracting the binding response recorded from the control surface, followed by subtracting an average of the buffer blank injections from the reaction spot. To determine kinetic rate constants, all data sets were fit to a simple 1:1 binding with drifting baseline model using BIAevaluation program.
The present inventors compared the dose-dependent effect of GPM1 and NC1 on the interaction of gp96 and AIMP1 using ELISA. […] The present inventors monitored the binding kinetics of GPM1 to gp96 or AIMP1 by surface plasmon resonance (SPR) using BIAcore 3000. […] To further define the GPM1 binding region of gp96 (Han, J. M., Park, S. G., Liu, B., Park, B. J., Kim, J. Y., Jin, C. H., Song, Y. W., Li, Z. & Kim, S. Am. J. Pathol. 170, 2042-2054 (2007)), the present inventors introduced point mutations at L707, V706, V712, L713, F714, Y731 and M738 that are located within AIMP1 binding region of gp96 and monitored how the mutations at these sites would affect the binding of GPM1 to gp96 using SPR method.

Test [2] relates to cell surface gp96 of splenocytes isolated from C57BL/6 mice. Description: Flow cytometry of cell surface gp96 on splenocytes. The format is cell-based. Conditions: 10 μM, 24 h. On the procedure:
FIGS. 1 to 9 represent suppression of cell surface gp96 by GPM1 reduces DC maturation and B220^+ population in gp96tm transgenic mice. (FIG. 1) Chemical structure of GPM1 (Formula 2) and negative control (NC1, Formula 16) used in this study. (FIG. 2) The dose-dependent effect of GPM1 or NC1 on the AIMP1-gp96 interaction using ELISA method as described. The indicated concentrations of the two compounds and biotin-conjugated murine gp96 were added to AIMP1 coated on the surface of microtiter wells, and gp96 bound to AIMP1 was detected with strepavidin-conjugated peroxidase. (FIG. 3) The binding of GPM1 to gp96 was examined by surface plasmon resonance (SPR). GPM1 at the indicated concentrations was injected to immobilized gp96 and the binding was measured using Biacore 3000. The response data were processed using data from a reference surface and buffer injections. Each concentration was tested in triplicate. (FIG. 4) RAW24.7 cells were treated with 10 μM GPM1 for 24 h. Cell lysates were immunoprecipitated with control IgG or anti-gp96 antibody and the immunoprecipitated proteins were immunoblotted with anti-KDELR1, antiAIMP1 and gp96 antibodies. WCL means whole cell lysate. […] TNFα secreted from BMDCs was quantified by ELISA. […]

`COC(=O)[C@@H](Oc1nc(OC)cc(OC)n1)C(C)C` [GPM1, (S)-methyl 2-(4,6-dimethoxypyrimidin-2-yloxy)-3-methylbutanoate]: in test [1] (dose-dependent effect, ELISA, read-out: 50% inhibition of the interaction of gp96 and AIMP1), the IC50 was roughly 30 nM. In addition, the inhibition at 0.1 µM in test [1] (read-out: Inhibition rate (at 100 nM; %)) was 95%. For the same compound, on gp96 M738L, binding was put at a Kd of 210 nM and the “koff (dissociation rate constant)” value stood at 0.0132 s⁻¹. The kon on gp96 M738L (read-out: Ka) was determined as 63000 M⁻¹ s⁻¹. Moreover, in test [2], the “surface gp96 of mouse splenocytes” value was “decreased”.

Source of the values: patent US9573907B2, “2, 4-pyrimidine derivatives and use thereof” (SNU R&DB FOUNDATION, priority 2009, dated 2017).
